From PMC9847679, “The anti-breast cancer stem cell properties of gold(I)-non-steroidal anti-inflammatory drug complexes” (Chemical Science, 2022)

How the values were obtained:
MDA-MB-231 cells = test: Monolayer cytotoxicity (MTT assay), MDA-MB-231 cells; format: cell-based, human; conditions: 72 h incubation
Text: (§1) Cell Lines and Cell Culture Conditions. The human mammary epithelial HMLER and HMLER-shEcad cell lines were kindly donated by Prof. R. A. Weinberg (Whitehead Institute, MIT). The human epithelial breast MCF10A, breast adenocarcinoma MDA-MB-231 and MDA-MB-468, murine epithelial breast 4T1, and embryonic kidney HEK 293 cell lines were acquired from American Type Culture Collection (ATCC, Manassas, VA, USA).
(§2) HMLER, HMLER-shEcad, and MCF10A cells were maintained in Mammary Epithelial Cell Growth Medium (MEGM) with supplements and growth factors (BPE, hydrocortisone, hEGF, insulin, and gentamicin/amphotericin-B). MDA-MB-231, MDA-MB-468, 4T1, and HEK 293 cells were maintained in Dulbecco's Modified Eagle's Medium (DMEM) supplemented with fetal bovine serum (10 %) and penicillin/streptomycin (1 %). The cells were grown at 310 K in a humidified atmosphere containing 5% CO2.
(§3) Monolayer Cytotoxicity Studies. Exponentially growing cells were seeded at a density of approximately 5 × 10^3 cells per well in 96-well flat-bottomed microplates and allowed to attach for 24 h prior to addition of compounds. Various concentrations of the test compounds (0.0004-100 μM) were added and incubated for 72 h at 37 °C (total volume 200 μl). Stock solutions of the compounds were prepared as 10 mM DMSO solutions and diluted using cell […]
(§4) media. The final concentration of DMSO in each well was ≤1 %. […] The optical density was measured at 550 nm using a 96-well multiscanner autoreader. Absorbance values were normalised to (DMSO-containing) control wells and plotted as concentration of test compound versus % cell viability. […]
(§5) h, the fluorescence of the solutions was read at 590 nm (λex = 560 nm). […]
(§6) Cellular Uptake. […] The number of cells was counted at this stage, using a haemocytometer. […] All samples were diluted 17-fold with water and analysed using inductively coupled plasma mass spectrometry (ICP-MS, Thermo Scientific ICAP-Qc quadrupole ICP mass spectrometer). Gold levels are expressed as mass of Au (ng) per million cells. […]

MDA-MB-468 cells = test: Monolayer cytotoxicity (MTT assay), MDA-MB-468 cells; format: cell-based, human; conditions: 72 h incubation
Text: as §1, §2, §3
media. The final concentration of DMSO in each well was ≤1 %. After 72 h, 20 μl of MTT (4 mg mL-1 in PBS) was added to each well and the plates incubated for an additional 4 h at 37 °C. The media/MTT mixture was eliminated and DMSO (100 μl per well) was added to dissolve the formazan precipitates. The optical density was measured at 550 nm using a 96-well multiscanner autoreader. Absorbance values were normalised to (DMSO-containing) control wells and plotted as concentration of test compound versus % cell viability. IC50 values were interpolated from the resulting dose dependent curves. The reported IC50 values are the average of three independent experiments (n = 18). […]
Cellular Uptake. […]

4T1 cells = test: Monolayer cytotoxicity (MTT assay), 4T1 cells; format: cell-based, murine; conditions: 72 h incubation
Text: as §1, §2, §3, §4, §5, §6

HMLER-shEcad cells = test: FITC Annexin V-propidium iodide assay; format: cell-based, human; conditions: IC50 value ×2, 48 h
Procedure: Annexin V-Propidium Iodide Assay. HMLER-shEcad cells were incubated with and […]
harvested from adherent cultures by trypsinisation. The FITC Annexin V/Dead Cell Apoptosis Kit was used. The manufacture’s (Thermo Fisher Scientific) protocol was followed to carry out this experiment.
1× Annexin binding buffer (100 µL) (10 mM HEPES, 140 mM NaCl, 2.5 mM CaCl2, pH 7.4), then 5 µL FITC Annexin V and 1 µL PI (100 µg/ mL) were added to each sample and incubated at room temperature for 15 min. After which more 1× Annexin binding buffer (400 µL) was added while gently mixing. The cells were analysed using a FACSCanto II flow cytometer (BD Biosciences) (10,000 events per sample were acquired) at the University of Leicester FACS Facility. The FL1 channel was used to assess Annexin V binding and the FL2 channel was used to assess PI uptake. Cell populations were analysed using the FlowJo […]
ice-cold methanol (for 30 min), and suspended in PBS (200 μL). […]
COX-2 Inhibition Enzyme Immunoassay (EIA). […]
(ovine) Inhibitor Screening Assay (Cayman Chemicals).” The assay was performed according to the manuf acturer’s instructions using a 96-well plate set up.

[1] = Tissue biodistribution of gold; format: in vivo, BALB/c mice; conditions: 4T1-bearing mice after 16 days treatment, 10 mg kg−1 IP
Procedure: tumour-size and body-weight measurements were performed three days a week, and the mice were euthanised after 16 days (n = 5 for 1 and n = 5 for vehicle control).
Tissue biodistribution of 1. Following the treatment o f mice with 1 for 16 days, each tissue (heart, lung, liver, spleen, kidney, and tumo ur) was excised from euthanised mice (n = 3).
The tissues were boiled for 5 h at 60 °C with 70% nitric acid (0.5 mL) , and then boiled again at 60 °C for 10 min with 35% hydrogen peroxide (0.5 mL). The solutions turned yellow, and were diluted as needed to measure the gold content using a Graphite Furnace Atomic Absorption Spectrometer. Before measuring all samples, th e standard solution curves were […]
Hematoxylin and eosin staining. The mice used in the in vivo comparative experiment of 1 and the vehicle control were sacrificed at day 16 post tumo ur cells (4T1) injection. The tissues (liver, kidney, and tumour) were fixed in freshly prepared paraformaldehyde (4% in PBS) for 24 h and processed for paraffin sectioning. Tissue sections of 5 µm were stained with hematoxylin and eosin and used for histological examination. A total of 3 sections per tissue (spanning the full depth of the tissue) were examined and photographed using a Nikon

COc1ccc2c(c1)c(CC(=O)[O][Au][PH](c1ccccc1)(c1ccccc1)c1ccccc1)c(C)n2C(=O)c1ccc(Cl)cc1 [complex 1]
IC50 (MDA-MB-231 cells): 3.94 ± 0.3 µM | IC50 (MDA-MB-468 cells): 4.47 ± 0.17 µM | IC50 (4T1 cells): 2.24 ± 0.11 µM | apoptosis induction (HMLER-shEcad cells): induced large populations of cells to undergo late-stage apoptosis | gold content in the kidney [1]: 15 μg g^−1 of tissue | gold content in tumour tissue [1]: 3 μg g^−1 of tissue
